One assay has as its target T1, Aurora A (Homo sapiens, UniProt O14965).
T1 sequence (O14965 1-403): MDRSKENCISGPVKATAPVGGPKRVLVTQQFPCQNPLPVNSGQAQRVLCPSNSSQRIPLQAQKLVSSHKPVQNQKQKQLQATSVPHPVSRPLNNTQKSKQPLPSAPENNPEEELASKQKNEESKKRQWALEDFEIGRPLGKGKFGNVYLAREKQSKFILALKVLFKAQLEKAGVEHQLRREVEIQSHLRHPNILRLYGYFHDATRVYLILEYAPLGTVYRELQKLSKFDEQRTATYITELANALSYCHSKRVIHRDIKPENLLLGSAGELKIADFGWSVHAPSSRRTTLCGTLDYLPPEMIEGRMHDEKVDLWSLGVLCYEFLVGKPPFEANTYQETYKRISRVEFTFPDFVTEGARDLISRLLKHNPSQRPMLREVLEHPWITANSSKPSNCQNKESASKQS
The experiment in a line: Aurora A enzyme inhibition (time-resolved fluorescence, STK substrate-2). The class given is biochemical. The settings on record: 1 mM ATP. A digest of the protocol:
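Phosphorylation of biotinylated STK substrate-2 at 1 mM ATP, 1 h, Hepes buffer pH 7.4 (MgCl2, sodium orthovanadate, Triton X-100). After EDTA quench, 665/615 nm time-resolved fluorescence ratio read via europium anti-phospho antibody and SA-XL665; IC50 from exponential fit versus inhibitor concentration.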

In another assay the target is KDR (Homo sapiens, UniProt P35968). The experiment in a line: KDR HTRF in vitro kinase assay. In kind it is biochemical. Details: purified enzyme (His6-KDR 789-1354, MW 63 kD); His6 (N). The following applies: 1 mM ATP; read-out: KDR enzyme inhibition data (Ki). A digest of the protocol:
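His6-KDR 789-1354 (7 ng/well) with 0.5 μM biotinylated peptide substrate and 1 mM ATP in HEPES pH 7.1, MgCl2/MnCl2, 60 min at room temperature. EDTA-quenched, detected by streptavidin-XL-665 plus Eu-kryptate anti-phosphotyrosine HTRF after 3 h; IC50 from 620/665 nm ratio.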

Experimental findings from US8426408B2, “Pyrimidine inhibitors of kinases” (AbbVie Inc., priority 2009, dated 2013) are described below.

Chain of KDR (P35968 789-1354): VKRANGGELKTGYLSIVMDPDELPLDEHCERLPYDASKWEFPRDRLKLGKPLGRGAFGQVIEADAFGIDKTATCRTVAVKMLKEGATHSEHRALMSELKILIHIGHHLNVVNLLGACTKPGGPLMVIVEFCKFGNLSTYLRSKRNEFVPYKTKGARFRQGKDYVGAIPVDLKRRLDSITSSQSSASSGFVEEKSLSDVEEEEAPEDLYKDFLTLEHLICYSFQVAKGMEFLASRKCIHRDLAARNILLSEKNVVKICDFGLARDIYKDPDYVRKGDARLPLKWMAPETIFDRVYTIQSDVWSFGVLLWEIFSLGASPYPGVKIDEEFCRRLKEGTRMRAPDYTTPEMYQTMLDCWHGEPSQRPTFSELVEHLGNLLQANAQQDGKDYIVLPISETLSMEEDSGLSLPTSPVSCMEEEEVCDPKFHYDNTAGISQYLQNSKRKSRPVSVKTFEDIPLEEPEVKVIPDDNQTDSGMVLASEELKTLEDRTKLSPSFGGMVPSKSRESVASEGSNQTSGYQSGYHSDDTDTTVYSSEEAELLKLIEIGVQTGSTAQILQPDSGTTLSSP

With `Cn1cc(Nc2ncc(C(F)(F)F)c(N[C@@H]3[C@H](C(N)=O)[C@H]4C=C[C@@H]3C4)n2)cn1.Cn1cc(Nc2ncc(C(F)(F)F)c(N[C@H]3[C@@H](C(N)=O)[C@@H]4C=C[C@H]3C4)n2)cn1` (mixture of isomers) [Example 10, (1S,2S,3R,4R)-3-{[2-[(1-methyl-1H-pyrazol-4-yl)amino]-5-(trifluoromethyl)pyrimidin-4-yl]amino}bicyclo[2.2.1]hept-5-ene-2-carboxamide and (1R,2R,3S,4S)-3-{[2-[(1-methyl-1H-pyrazol-4-yl)amino]-5-(trifluoromethyl)pyrimidin-4-yl]amino}bicyclo[2.2.1]hept-5-ene-2-carboxamide], the Ki on Aurora A and at KDR was below 100 nM throughout.
`CC(O)Cn1cc(Nc2ncc(C(F)(F)F)c(NC3C4C=CC(C4)C3C(N)=O)n2)cn1` (mixture of isomers) [Example 19, (1R,2R,3S,4S)-3-{[2-({1-[(2R)-2-hydroxypropyl]-1H-pyrazol-4-yl}amino)-5-(trifluoromethyl)pyrimidin-4-yl]amino}bicyclo[2.2.1]hept-5-ene-2-carboxamide and (1S,2S,3R,4R)-3-{[2-({1-[(2R)-2-hydroxypropyl]-1H-pyrazol-4-yl}amino)-5-(trifluoromethyl)pyrimidin-4-yl]amino}bicyclo[2.2.1]hept-5-ene-2-carboxamide]: the Ki at Aurora A and on KDR was below 100 nM each time.
For `Cn1cc(Nc2ncc(C(F)(F)F)c(N[C@@H]3[C@@H]4CC[C@@H](C4)[C@@H]3C(N)=O)n2)cn1.Cn1cc(Nc2ncc(C(F)(F)F)c(N[C@H]3[C@H]4CC[C@H](C4)[C@H]3C(N)=O)n2)cn1` (mixture of isomers) [Example 20, (1S,2S,3R,4R)-3-{[2-[(1-methyl-1H-pyrazol-4-yl)amino]-5-(trifluoromethyl)pyrimidin-4-yl]amino}bicyclo[2.2.1]heptane-2-carboxamide and (1R,2R,3S,4S)-3-{[2-[(1-methyl-1H-pyrazol-4-yl)amino]-5-(trifluoromethyl)pyrimidin-4-yl]amino}bicyclo[2.2.1]heptane-2-carboxamide], the inhibition constant Ki at Aurora A and on KDR was below 100 nM each time.
For the compound `CC(O)Cn1cc(Nc2ncc(C(F)(F)F)c(NC3C4CCC(C4)C3C(N)=O)n2)cn1` (mixture of isomers) [Example 21, (1S,2R,3S,4R)-3-{[2-({1-[(2R)-2-hydroxypropyl]-1H-pyrazol-4-yl}amino)-5-(trifluoromethyl)pyrimidin-4-yl]amino}bicyclo[2.2.1]heptane-2-carboxamide and (1R,2S,3R,4S)-3-{[2-({1-[(2R)-2-hydroxypropyl]-1H-pyrazol-4-yl}amino)-5-(trifluoromethyl)pyrimidin-4-yl]amino}bicyclo[2.2.1]heptane-2-carboxamide], the Ki – broadly, the equilibrium dissociation constant of an inhibitor or competing ligand from its target – on Aurora A is below 100 nM; at KDR, 100 to 1000 nM.
The matching figures for `CCn1cc(Nc2ncc(C(F)(F)F)c(N[C@@H]3[C@H](C(N)=O)[C@H]4C=C[C@@H]3C4)n2)cn1.CCn1cc(Nc2ncc(C(F)(F)F)c(N[C@H]3[C@@H](C(N)=O)[C@@H]4C=C[C@H]3C4)n2)cn1` (mixture of isomers) [Example 22, (1S,2S,3R,4R)-3-{[2-[(1-ethyl-1H-pyrazol-4-yl)amino]-5-(trifluoromethyl)pyrimidin-4-yl]amino}bicyclo[2.2.1]hept-5-ene-2-carboxamide and (1R,2R,3S,4S)-3-{[2-[(1-ethyl-1H-pyrazol-4-yl)amino]-5-(trifluoromethyl)pyrimidin-4-yl]amino}bicyclo[2.2.1]hept-5-ene-2-carboxamide]: below 100 nM and below 100 nM.
As to `CCn1cc(Nc2ncc(C(F)(F)F)c(N[C@@H]3[C@H]4CC[C@H](C4)[C@@H]3C(N)=O)n2)cn1.CCn1cc(Nc2ncc(C(F)(F)F)c(N[C@H]3[C@@H]4CC[C@@H](C4)[C@H]3C(N)=O)n2)cn1` (mixture of isomers) [Example 24, (1R,2S,3R,4S)-3-{[2-[(1-ethyl-1H-pyrazol-4-yl)amino]-5-(trifluoromethyl)pyrimidin-4-yl]amino}bicyclo[2.2.1]heptane-2-carboxamide and (1S,2R,3S,4R)-3-{[2-[(1-ethyl-1H-pyrazol-4-yl)amino]-5-(trifluoromethyl)pyrimidin-4-yl]amino}bicyclo[2.2.1]heptane-2-carboxamide], the inhibition constant Ki at Aurora A and on KDR was below 100 nM throughout.
Take `CCn1cc(Nc2ncc(Br)c(N[C@@H]3[C@H](C(N)=O)[C@H]4C=C[C@@H]3C4)n2)cn1.CCn1cc(Nc2ncc(Br)c(N[C@H]3[C@@H](C(N)=O)[C@@H]4C=C[C@H]3C4)n2)cn1` (mixture of isomers) [Example 31, (1S,2S,3R,4R)-3-({5-bromo-2-[(1-ethyl-1H-pyrazol-4-yl)amino]pyrimidin-4-yl}amino)bicyclo[2.2.1]hept-5-ene-2-carboxamide and (1R,2R,3S,4S)-3-({5-bromo-2-[(1-ethyl-1H-pyrazol-4-yl)amino]pyrimidin-4-yl}amino)bicyclo[2.2.1]hept-5-ene-2-carboxamide]: the Ki at Aurora A and at KDR was below 100 nM each time.
For the compound `Cn1cc(Nc2ncc(Cl)c(N[C@@H]3[C@@H]4CC[C@@H](C4)[C@@H]3C(N)=O)n2)cn1.Cn1cc(Nc2ncc(Cl)c(N[C@H]3[C@H]4CC[C@H](C4)[C@H]3C(N)=O)n2)cn1` (mixture of isomers) [Example 113, (1R,2R,3S,4S)-3-({5-chloro-2-[(1-methyl-1H-pyrazol-4-yl)amino]pyrimidin-4-yl}amino)bicyclo[2.2.1]heptane-2-carboxamide and (1S,2S,3R,4R)-3-({5-chloro-2-[(1-methyl-1H-pyrazol-4-yl)amino]pyrimidin-4-yl}amino)bicyclo[2.2.1]heptane-2-carboxamide], the Ki on Aurora A and at KDR was below 100 nM throughout.
Take `CCn1cc(Nc2ncc(Cl)c(N[C@@H]3[C@@H]4CC[C@@H](C4)[C@@H]3C(N)=O)n2)cn1.CCn1cc(Nc2ncc(Cl)c(N[C@H]3[C@H]4CC[C@H](C4)[C@H]3C(N)=O)n2)cn1` (mixture of isomers) [Example 114, (1R,2R,3S,4S)-3-({5-chloro-2-[(1-ethyl-1H-pyrazol-4-yl)amino]pyrimidin-4-yl}amino)bicyclo[2.2.1]heptane-2-carboxamide and (1S,2S,3R,4R)-3-({5-chloro-2-[(1-ethyl-1H-pyrazol-4-yl)amino]pyrimidin-4-yl}amino)bicyclo[2.2.1]heptane-2-carboxamide]: the Ki on Aurora A and at KDR was below 100 nM each time.
`CCn1cc(Nc2ncc(Cl)c(N[C@@H]3[C@H](C(N)=O)[C@@H]4C=C[C@H]3C4)n2)cn1.CCn1cc(Nc2ncc(Cl)c(N[C@H]3[C@@H](C(N)=O)[C@H]4C=C[C@@H]3C4)n2)cn1` (mixture of isomers) [Example 121, (1S,2R,3S,4R)-3-({5-chloro-2-[(1-ethyl-1H-pyrazol-4-yl)amino]pyrimidin-4-yl}amino)bicyclo[2.2.1]hept-5-ene-2-carboxamide and (1R,2S,3R,4S)-3-({5-chloro-2-[(1-ethyl-1H-pyrazol-4-yl)amino]pyrimidin-4-yl}amino)bicyclo[2.2.1]hept-5-ene-2-carboxamide]: the Ki at Aurora A and at KDR was below 100 nM throughout.
In the case of `NC(=O)[C@@H]1CCC[C@@H]1Nc1nc(Nc2cnn(C3CCNCC3)c2)ncc1Cl.NC(=O)[C@H]1CCC[C@H]1Nc1nc(Nc2cnn(C3CCNCC3)c2)ncc1Cl` (mixture of isomers) [Example 136, (1S,2R)-2-[(5-chloro-2-{[1-(piperidin-4-yl)-1H-pyrazol-4-yl]amino}pyrimidin-4-yl)amino]cyclopentanecarboxamide and (1R,2S)-2-[(5-chloro-2-{[1-(piperidin-4-yl)-1H-pyrazol-4-yl]amino}pyrimidin-4-yl)amino]cyclopentanecarboxamide], the inhibition constant (Ki) was below 100 nM on Aurora A and 100 to 1000 nM on KDR.
In the case of `Cn1cc(Nc2ncc(Cl)c(N[C@@H]3[C@H](C(N)=O)[C@H]4CC[C@@H]3O4)n2)cn1.Cn1cc(Nc2ncc(Cl)c(N[C@H]3[C@@H](C(N)=O)[C@@H]4CC[C@H]3O4)n2)cn1` (mixture of isomers) [Example 141, (1S,2R,3S,4R)-3-({5-chloro-2-[(1-methyl-1H-pyrazol-4-yl)amino]pyrimidin-4-yl}amino)-7-oxabicyclo[2.2.1]heptane-2-carboxamide and (1R,2S,3R,4S)-3-({5-chloro-2-[(1-methyl-1H-pyrazol-4-yl)amino]pyrimidin-4-yl}amino)-7-oxabicyclo[2.2.1]heptane-2-carboxamide], the Ki at Aurora A and on KDR was below 100 nM in each case.
As to `Cn1cc(Nc2ncc(Cl)c(N[C@@H]3CC[C@@H]3C(N)=O)n2)cn1.Cn1cc(Nc2ncc(Cl)c(N[C@H]3CC[C@H]3C(N)=O)n2)cn1` (mixture of isomers) [Example 151, (1S,2R)-2-({5-chloro-2-[(1-methyl-1H-pyrazol-4-yl)amino]pyrimidin-4-yl}amino)cyclobutanecarboxamide and (1R,2S)-2-({5-chloro-2-[(1-methyl-1H-pyrazol-4-yl)amino]pyrimidin-4-yl}amino)cyclobutanecarboxamide], the Ki on Aurora A and at KDR was below 100 nM in each case.
